# Molecular target: T1, MAGL (Homo sapiens, UniProt Q99685)
# T1 sequence (Q99685 1-303): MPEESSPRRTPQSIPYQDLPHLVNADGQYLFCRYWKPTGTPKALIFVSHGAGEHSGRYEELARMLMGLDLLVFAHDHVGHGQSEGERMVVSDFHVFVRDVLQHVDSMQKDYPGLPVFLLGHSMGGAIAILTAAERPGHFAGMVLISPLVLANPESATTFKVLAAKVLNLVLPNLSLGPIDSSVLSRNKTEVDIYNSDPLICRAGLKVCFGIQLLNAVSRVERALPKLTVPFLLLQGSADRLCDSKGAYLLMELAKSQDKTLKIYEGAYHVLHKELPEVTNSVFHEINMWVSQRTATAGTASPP
# Assay: 2-AG assay (MAGL inhibitory activity, hydrolysis of 2-arachidonoylglycerol followed by mass spectrometry)
# Format: biochemical
# Conditions: 50 pM MAGL, 8 μM 2-arachidonoylglycerol, 15 min preincubation, 30 min incubation at RT
# Protocol: Compounds were profiled for MAGL inhibitory activity by determining the enzymatic activity by following the hydrolysis of the natural substrate 2-arachidonoylglycerol (2-AG) resulting in arachidonic acid, which can be followed by mass spectrometry. This assay is hereinafter abbreviated “2-AG assay”.
# The 2-AG assay was carried out in 384 well assay plates (PP, Greiner Cat #784201) in a total volume of 20 μL. Compound dilutions were made in 100% DMSO (VWR Chemicals 23500.297) in a polypropylene plate in 3-fold dilution steps to give a final concentration range in the assay from 12.5 μM to 0.8 pM. 0.25 μL compound dilutions (100% DMSO) were added to 9 μL MAGL in assay buffer (50 mM TRIS (GIBCO, 15567-027), 1 mM EDTA (Fluka, 03690-100 mL), 0.01% (v/v) Tween. After shaking, the plate was incubated for 15 min at RT. To start the reaction, 10 μL 2-arachidonoylglycerol in assay buffer was added. The final concentrations in the assay was 50 pM MAGL and 8 μM 2-arachidonoylglyerol. After shaking and 30 min incubation at RT, the reaction was quenched by the addition of […] of ACN containing 4 μM of d8-arachidonic acid. The amount of arachidonic acid was traced by an online SPE system (Agilent Rapidfire) coupled to a triple quadrupole mass spectrometer (Agilent 6460). A C18 SPE cartridge (G9205A) was used in an ACN/water liquid setup. The mass spectrometer was operated in negative electrospray mode following the mass transitions 303.1→259.1 for arachidonic acid and 311.1→267.0 for d8-arachidonic acid. The activity of the compounds was calculated based on the ratio of intensities [arachidonic acid/d8-arachidonic acid].
row,Compound,IC50
1,"4-[(E)-2-[3-[(7R,9aR)-7-(4-Chlorophenyl)-1,3,4,6,7,8,9,9a-octahydropyrido[1,2-a]pyrazine-2-carbonyl]-2-bromo-phenyl]vinyl]-N-methyl-benzamide and 3-[(E)-2-[4-[(7R,9aR)-7-(4-chlorophenyl)-1,3,4,6,7,8,9,9a-octahydropyrido[1,2-a]pyrazine-2-carbonyl]phenyl]vinyl]-2-bromo-N-methyl-benzamide [Example 31]",3.72 nM
2,"COc1cccc(C(=O)N2CCN3C[C@@](O)(CC(C)C)CC[C@@H]3C2)c1Cl (racemic) [Example 24, (2-Chloro-3-methoxyphenyl)-[rac-(7R,9aS)-7-hydroxy-7-(2-methylpropyl)-3,4,6,8,9,9a-hexahydro-1H-pyrido[1,2-a]pyrazin-2-yl]methanone]",626 nM
3,"COc1cccc(C(=O)N2CCN3C[C@@](O)(C4CCCC4)CC[C@@H]3C2)c1Cl (racemic) [Example 25, (2-chloro-3-methoxyphenyl)-[rac-(7R,9aS)-7-cyclopentyl-7-hydroxy-3,4,6,8,9,9a-hexahydro-1H-pyrido[1,2-a]pyrazin-2-yl]methanone]",548 nM
4,"COc1cccc(C(=O)N2CCN3C[C@@](O)(C(F)(F)F)CC[C@@H]3C2)c1Cl (racemic) [Example 26, (2-Chloro-3-methoxyphenyl)-[rac-(7R,9aR)-7-hydroxy-7-(trifluoromethyl)-3,4,6,8,9,9a-hexahydro-1H-pyrido[1,2-a]pyrazin-2-yl]methanone]",678 nM
5,"CC1(O)CCN(c2cccc(C(=O)N3CCN4C[C@@](O)(c5ccc(Cl)cc5)CC[C@@H]4C3)c2Cl)C1 (mixture of isomers) [Example 50, [2-chloro-3-(3-hydroxy-3-methylpyrrolidin-1-yl)phenyl]-[rac-(7R,9aS)-7-(4-chlorophenyl)-7-hydroxy-3,4,6,8,9,9a-hexahydro-1H-pyrido[1,2-a]pyrazin-2-yl]methanone]",72.4 nM
6,"COc1cccc(C(=O)N2CCN3CC(O)(c4ccc(C(F)(F)F)nc4)CCC3C2)c1Cl (racemic) [Example 71, (2-chloro-3-methoxyphenyl)-[rac-(7R,9aR)-7-hydroxy-7-[6-(trifluoromethyl)pyridin-3-yl]-3,4,6,8,9,9a-hexahydro-1H-pyrido[1,2-a]pyrazin-2-yl]methanone]",278 nM
7,"COc1cccc(C(=O)N2CCN3CC(O)(c4ccc(C(F)(F)F)nc4)CCC3C2)c1Cl (racemic) [Example 72, (2-chloro-3-methoxyphenyl)-[rac-(7R,9aS)-7-hydroxy-7-[6-(trifluoromethyl)pyridin-3-yl]-3,4,6,8,9,9a-hexahydro-1H-pyrido[1,2-a]pyrazin-2-yl]methanone]",3490 nM
8,"O=C(c1cccc(OC(F)F)c1Cl)N1CCN2C[C@@](O)(c3ccc(C(F)(F)F)cn3)CC[C@@H]2C1 (stereo in doubt) [Example 37, [(7R,9aR)-7-hydroxy-7-[5-(trifluoromethyl)pyridin-2-yl]-3,4,6,8,9,9a-hexahydro-1H-pyrido[1,2-a]pyrazin-2-yl]-[2-chloro-3-(difluoromethoxy)phenyl]methanone]",898 nM
9,"O=C(c1cccc(OC(F)F)c1Cl)N1CCN2C[C@](O)(c3ccc(C(F)(F)F)cn3)CC[C@H]2C1 (stereo in doubt) [Example 38, [(7S,9aS)-7-hydroxy-7-[5-(trifluoromethyl)pyridin-2-yl]-3,4,6,8,9,9a-hexahydro-1H-pyrido[1,2-a]pyrazin-2-yl]-[2-chloro-3-(difluoromethoxy)phenyl]methanone]",327 nM
10,"COc1cccc(C(=O)N2CCN3C[C@@](O)(c4ccc(F)c(Cl)c4)CC[C@@H]3C2)c1Cl [Example 1, [(7S,9aR)-7-(3-Chloro-4-fluorophenyl)-7-hydroxy-3,4,6,8,9,9a-hexahydro-1H-pyrido[1,2-a]pyrazin-2-yl]-(2-chloro-3-methoxyphenyl)methanone]",4.48 nM

# Reference: patent US12637454B2, “Heterocyclic monoacylglycerol lipase (MAGL) inhibitors” (Hoffmann-La Roche Inc., priority 2019, dated 2026)
